Measurements: patent publication US7741341B2, “Benzimidazole-derivatives as factor Xa inhibitors” (sanofi-aventis Deutschland GmbH, priority 2003, dated 2010)
pKi: −log10 of the molar value.

molecular target: T1, human factor Xa (Homo sapiens, UniProt P00742); test: Factor Xa assay (chromogenic, substrate S-2765); type: biochemical; conditions: read-out: Ki(FXa)
T1 construct: human factor Xa (Enzyme Research Laboratories, Inc; South Bend, Ind.); purchased Enzyme Research Laboratories, Inc; South Bend, Ind
Protocol: Purified enzymes were used in chromogenic assays.
The IC50 was determined by combining in appropriate wells of a Costar half-area microtiter plate 25 μl human factor Xa (Enzyme Research Laboratories, Inc.; South Bend, Ind.) in TBS-PEG; 40 μl 10% (v/v) DMSO in TBS-PEG (uninhibited control) or various concentrations of the compound to be tested diluted in 10% (v/v) DMSO in TBS-PEG; and substrate S-2765 (N(α)-benzyloxycarbonyl-D-Arg-Gly-L-Arg-p-nitroanilide; Kabi Pharmacia, Inc.; Franklin, Ohio) in TBS-PEG.
The assay was performed by pre-incubating the compound of formula I plus enzyme for 10 min. Then the assay was initiated by adding substrate to obtain a final volume of 100 μl. […] The enzyme concentration was 0.5 nM and substrate concentration was 140 μM.

T1 sequence (P00742 235-488 limits assumed): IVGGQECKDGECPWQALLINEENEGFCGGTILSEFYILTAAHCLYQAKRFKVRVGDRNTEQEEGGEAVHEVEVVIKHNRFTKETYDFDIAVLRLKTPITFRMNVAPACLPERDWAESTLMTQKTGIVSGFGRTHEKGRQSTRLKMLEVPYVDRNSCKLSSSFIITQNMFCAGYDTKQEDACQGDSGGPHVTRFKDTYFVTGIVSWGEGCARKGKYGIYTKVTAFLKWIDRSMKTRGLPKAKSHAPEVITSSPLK
T1 sequence (P00742 41-179 partner limits assumed): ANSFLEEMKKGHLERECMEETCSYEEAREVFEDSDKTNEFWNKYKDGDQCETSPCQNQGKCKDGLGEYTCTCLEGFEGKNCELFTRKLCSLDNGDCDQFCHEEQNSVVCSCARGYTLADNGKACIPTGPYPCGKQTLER

Row | SMILES | pKi
1 | CCOC(=O)OC(C)OC(=O)c1ccc2nc(C(=O)NC3CCN(C(C)C)CC3)n(CC(=O)Nc3ccc(Cl)cn3)c2c1 (centres unmarked) [Example 63, 3-[(5-Chloro-pyridin-2-ylcarbamoyl)-methyl]-2-(1-isopropyl-piperidin-4-ylcarbamoyl)-3H-benzoimidazole-5-carboxylic acid 1-ethoxycarbonyloxy-ethyl ester] | 6.16
2 | CC(C)N1CCC(NC(=O)c2nc3cc(C(=O)O)ccc3n2Cc2cnc(-c3ccc(Cl)s3)s2)CC1 [Example 9, 1-[2-(5-Chloro-thiophen-2-yl)-thiazol-5-ylmethyl]-2-(1-isopropyl-piperidin-4-ylcarbamoyl)-1H-benzoimidazole-5-carboxylic acid] | 7.03
3 | CC(C)N1CCC(NC(=O)c2nc3c(C(=O)NCCO)scc3n2Cc2cc(-c3ccc(Cl)s3)on2)CC1 [Example 102, 3-[5-(5-Chloro-thiophen-2-yl)-isoxazol-3-ylmethyl]-3H-thieno[3,4-d]imidazole-2,6-dicarboxylic acid 6-[(2-hydroxy-ethyl)-amide]2-[(1-isopropyl-piperidin-4-yl)-amide]] | 8.60
4 | CC(C)N1CCC(NC(=O)c2nc3ccccc3n2Cc2cc(-c3ccc(Cl)s3)on2)CC1 [Example 1, 1-[5-(5-Chloro-thiophen-2-yl)-isoxazol-3-ylmethyl]-1H-benzoimidazole-2-carboxylic acid (1-isopropyl-piperidin-4-yl)-amide] | 9.15
5 | CC(C)N1CCC(NC(=O)c2nc3cc(C(=O)O)ccc3n2CC(=O)Nc2ccc(Cl)cn2)CC1 [Example 18, 1-[(5-Chloro-pyridin-2-ylcarbamoyl)-methyl]-2-(1-isopropyl-piperidin-4-ylcarbamoyl)-1H-benzoimidazole-5-carboxylic acid] | 7.65
6 | CC(C)N1CCC(NC(=O)c2nc3cc(S(=O)(=O)CCO)ccc3n2Cc2cc(-c3ccc(Cl)s3)on2)CC1 [Example 29a, 1-[5-(5-Chloro-thiophen-2-yl)-isoxazol-3-ylmethyl]-5-(2-hydroxy-ethanesulfonyl)-1H-benzoimidazole-2-carboxylic acid (1-isopropyl-piperidin-4-yl)-amide] | 7.59
7 | CC(C)N1CCC(NC(=O)c2nc3c(C(=O)N4CCCOCC4)cccc3n2CC(=O)Nc2ccc(Cl)cn2)CC1 [Example 74, 1-[(5-Chloro-pyridin-2-ylcarbamoyl)-methyl]-4-([1,4]oxazepane-4-carbonyl)-1H-benzoimidazole-2-carboxylic acid (1-isopropyl-piperidin-4-yl)-amide] | 7.98
8 | CC(OC(=O)OC1CCCCC1)OC(=O)c1ccc2c(c1)nc(C(=O)NC1CCN(C(C)C)CC1)n2Cc1cc(-c2ccc(Cl)s2)on1 (centres unmarked) [Example 28, 1-[5-(5-Chloro-thiophen-2-yl)-isoxazol-3-ylmethyl]-2-(1-isopropyl-piperidin-4-ylcarbamoyl)-1H-benzoimidazole-5-carboxylic acid 1-cyclohexyloxycarbonyloxy-ethyl ester] | 7.32
9 | CC(C)N1CCC(NC(=O)c2nc3ccc(C(=O)O)cc3n2Cc2cc(-c3ccc(Cl)s3)on2)CC1 [Example 7, 3-[5-(5-Chloro-thiophen-2-yl)-isoxazol-3-ylmethyl]-2-(1-isopropyl-piperidin-4-ylcarbamoyl)-3H-benzoimidazole-5-carboxylic acid] | 7.78
10 | CC(OC(=O)OC1CCCCC1)OC(=O)c1ccc2c(c1)nc(C(=O)NC1CCN(C(C)C)CC1)n2CC(=O)Nc1ccc(Cl)cn1 (centres unmarked) [Example 60, 1-[(5-Chloro-pyridin-2-ylcarbamoyl)-methyl]-2-(1-isopropyl-piperidin-4-ylcarbamoyl)-1H-benzoimidazole-5-carboxylic acid 1-cyclohexyloxycarbonyloxy-ethyl ester] | 7.46
11 | CC(C)N1CCC(NC(=O)c2nc3c(C(=O)N4CC(O)C4)cccc3n2CC(=O)Nc2ccc(Cl)cn2)CC1 [Example 32, 1-[(5-Chloro-pyridin-2-ylcarbamoyl)-methyl]-4-(3-hydroxy-azetidine-1-carbonyl)-1H-benzoimidazole-2-carboxylic acid (1-isopropyl-piperidin-4-yl)-amide] | 7.98
12 | CC(C)N1CCC(NC(=O)c2nc3ccccc3n2CC(=O)Nc2ccc(Cl)cn2)CC1 [Example 3, 1-[(5-Chloro-pyridin-2-ylcarbamoyl)-methyl]-1H-benzoimidazole-2-carboxylic acid (1-isopropyl-piperidin-4-yl)-amide] | 8.85
13 | CC(C)N1CCC(NC(=O)c2nc3c(C(=O)OCC4CC4)cccc3n2CC(=O)Nc2ccc(Cl)cn2)CC1 [Example 69, 1-[(5-Chloro-pyridin-2-ylcarbamoyl)-methyl]-2-(1-isopropyl-piperidin-4-ylcarbamoyl)-1H-benzoimidazole-4-carboxylic acid cyclopropylmethyl ester] | 7.82
14 | O=C(Cn1c(C(=O)Nc2ccc(N3CCOCC3=O)cc2)nc2c(C(=O)O)cccc21)Nc1ccc(Cl)cn1 [Example 53, 1-[(5-Chloro-pyridin-2-ylcarbamoyl)-methyl]-2-[4-(3-oxo-morpholin-4-yl)-phenylcarbamoyl]-1H-benzoimidazole-4-carboxylic acid] | 7.40
15 | CC(C)N1CCC(NC(=O)c2nc3ccc(C(=O)O)cc3n2CC(=O)Nc2ccc(Cl)cn2)CC1 [Example 19, 3-[(5-Chloro-pyridin-2-ylcarbamoyl)-methyl]-2-(1-isopropyl-piperidin-4-ylcarbamoyl)-3H-benzoimidazole-5-carboxylic acid] | 7.63

Other lines, results leading:

Row | pKi | SMILES
16 | 8.52 | CC(C)N1CCC(NC(=O)c2nc3c(C(=O)OCC(=O)O)cccc3n2Cc2cc(-c3ccc(Cl)s3)on2)CC1 [Example 66, 1-[5-(5-Chloro-thiophen-2-yl)-isoxazol-3-ylmethyl]-2-(1-isopropyl-piperidin-4-ylcarbamoyl)-1H-benzoimidazole-4-carboxylic acid carboxymethyl ester]
17 | 9.15 | CC(C)N1CCC(NC(=O)c2nc3c(C(=O)NCCO)cccc3n2Cc2cc(-c3ccc(Cl)s3)on2)CC1 [Example 22, 1-[5-(5-Chloro-thiophen-2-yl)-isoxazol-3-ylmethyl]-1H-benzoimidazole-2,4-dicarboxylic acid 4-[(2-hydroxy-ethyl)-amide] 2-[(1-isopropyl-piperidin-4-yl)-amide]]
18 | 7.90 | CCOC(=O)OC(C)OC(=O)c1cccc2c1nc(C(=O)NC1CCN(C(C)C)CC1)n2CC(=O)Nc1ccc(Cl)cn1 (centres unmarked) [Example 33, 1-[(5-Chloro-pyridin-2-ylcarbamoyl)-methyl]-2-(1-isopropyl-piperidin-4-ylcarbamoyl)-1H-benzoimidazole-4-carboxylic acid 1-ethoxycarbonyloxy-ethyl ester]
19 | 8.07 | CCOC(=O)OC(C)OC(=O)c1cccc2c1nc(C(=O)NC1CCN(C(C)C)CC1)n2Cc1cc(-c2ccc(Cl)s2)on1 (centres unmarked) [Example 20, 1-[5-(5-Chloro-thiophen-2-yl)-isoxazol-3-ylmethyl]-2-(1-isopropyl-piperidin-4-ylcarbamoyl)-1H-benzoimidazole-4-carboxylic acid 1-ethoxycarbonyloxy-ethyl ester]
20 | 6.08 | O=C(Cn1c(C(=O)Nc2ccc(N3CCOC3=O)cc2)nc2ccccc21)Nc1ccc(Cl)cn1 [Example 43, 1-[(5-Chloro-pyridin-2-ylcarbamoyl)-methyl]-1H-benzoimidazole-2-carboxylic acid [4-(2-oxo-oxazolidin-3-yl)-phenyl]-amide]
21 | 7.51 | CC(C)N1CCC(NC(=O)c2nc3cc(C(=O)N4CC(O)C4)ccc3n2CC(=O)Nc2ccc(Cl)cn2)CC1 [Example 54, 1-[(5-Chloro-pyridin-2-ylcarbamoyl)-methyl]-5-(3-hydroxy-azetidine-1-carbonyl)-1H-benzoimidazole-2-carboxylic acid (1-isopropyl-piperidin-4-yl)-amide]
22 | 7.50 | COC(=O)c1cccc2c1nc(C(=O)Nc1ccc(N3CCOCC3=O)cc1)n2CC(=O)Nc1ccc(Cl)cn1 [Example 36, 1-[(5-Chloro-pyridin-2-ylcarbamoyl)-methyl]-2-[4-(3-oxo-morpholin-4-yl)-phenylcarbamoyl]-1H-benzoimidazole-4-carboxylic acid methyl ester]
23 | 7.68 | CC(C)N1CCC(NC(=O)c2nc3c(C(=O)N4CCC(O)CC4)cccc3n2Cc2cc(-c3ccc(Cl)s3)on2)CC1 [Example 91, 1-[5-(5-Chloro-thiophen-2-yl)-isoxazol-3-ylmethyl]-4-(4-hydroxy-piperidine-1-carbonyl)-1H-benzoimidazole-2-carboxylic acid (1-isopropyl-piperidin-4-yl)-amide]
24 | 8.70 | CC(C)N1CCC(NC(=O)c2nc3c(C(=O)OCCO)cccc3n2Cc2cc(-c3ccc(Cl)s3)on2)CC1 [Example 64, 1-[5-(5-Chloro-thiophen-2-yl)-isoxazol-3-ylmethyl]-2-(1-isopropyl-piperidin-4-ylcarbamoyl)-1H-benzoimidazole-4-carboxylic acid 2-hydroxy-ethyl ester]
25 | 8.15 | COC1CN(C(=O)c2cccc3c2nc(C(=O)NC2CCN(C(C)C)CC2)n3Cc2cc(-c3ccc(Cl)s3)on2)C1 [Example 80, 1-[5-(5-Chloro-thiophen-2-yl)-isoxazol-3-ylmethyl]-4-(3-methoxy-azetidine-1-carbonyl)-1H-benzoimidazole-2-carboxylic acid (1-isopropyl-piperidin-4-yl)-amide]
26 | 6.06 | CC(OC(=O)OC1CCCCC1)OC(=O)c1ccc2nc(C(=O)NC3CCN(C(C)C)CC3)n(CC(=O)Nc3ccc(Cl)cn3)c2c1 (centres unmarked) [Example 61, 3-[(5-Chloro-pyridin-2-ylcarbamoyl)-methyl]-2-(1-isopropyl-piperidin-4-ylcarbamoyl)-3H-benzoimidazole-5-carboxylic acid 1-cyclohexyloxycarbonyloxy-ethyl ester]
